Reference: ChEMBL document CHEMBL1146892, “Pyrrolidine bis-cyclic guanidines with antimicrobial activity against drug-resistant Gram-positive pathogens identified from a mixture-based combinatorial library” (2006)
Values after ≈ are worked out from the molar mass of the structure shown.

Legend:
Type in all cases: functional
[1] = test system: Staphylococcus aureus; assay: Antibacterial activity against methicillin-resistant Staphylococcus aureus ATCC 33591
[2] = test system: Escherichia coli; assay: Antibacterial activity against Escherichia coli ATCC 25922
[3] = test system: Enterococcus faecalis; assay: Antibacterial activity against vancomycin-resistant Enterococcus faecalis ATCC 51299

## C[C@H]1CN=C(N)N1CC1CCCN1C[C@@H](CC1CCCCC1)N1C[C@@H](CC2CCCCC2)N(CCc2cc(C(F)(F)F)cc(C(F)(F)F)c2)C1=N (some centres not stated)
[1]
  MBC: 2.5 mg/L (≈ 3.44 µM)
  MIC: < 2.5 mg/L
[2]
  MBC: 5 mg/L (≈ 6.89 µM)
  MIC: 5 mg/L (≈ 6.89 µM)
[3]
  MBC: > 10 mg/L
  MIC: < 2.5 mg/L

## CCCC[C@@H]1CN([C@H](Cc2ccc3ccccc3c2)CN2CCCC2CN2C(N)=NC[C@@H]2Cc2ccccc2)C(=N)N1CC(C)c1ccc(CC(C)C)cc1 (some centres not stated)
[1]
  MBC: 2.5 mg/L (≈ 3.38 µM)
  MIC: < 2.5 mg/L
[2]
  MBC: > 10 mg/L
  MIC: > 10 mg/L
[3]
  MBC: > 10 mg/L
  MIC: < 2.5 mg/L
